# Measured values reported in US20260256821A1, “USE OF GINSENOSIDE IN COMBINATION WITH PD-1 BLOCKER IN PREPARING MEDICAMENT AGAINST HEAD AND NECK SQUAMOUS CELL CARCINOMA” (CHINESE ACADEMY OF MEDICAL SCIENCES INSTITUTE OF MEDICINAL …, priority 2022, published 2026).
# pIC50: −log10 of the molar value.
# Experiments:
# Cal-27 cells [1] = test: Proliferation of tongue squamous cell carcinoma Cal-27 cells (CCK-8); format: cell-based; settings: 48 h treatment, CCK-8, FIG. 1
# Procedure: Cells in good growth state were counted and inoculated into 96-well plates with 100 μL per well according to a certain cell density. After the cells adherence to the wall overnight, a medicament solution was added to intervene the cells. After 48 h of medicament treatment, CCK-8 reagent was added, 10 μL per well. After incubation for 2 h, the culture plates were taken out and detected at 450 nm wavelength of the enzymograph.
# Cal-27 cells [2] = test: Killing effect of lymphocytes on tumor cells in Cal-27/PBMC co-culture (Incucyte); format: cell-based; settings: compared with PBMC control group, anti-PD-1 antibody 5 μg/mL; for number of Cal-27 cells / killing effect of lymphocytes on tumor cells: FIG. 3, Rh2 1, 5, 10 μM, effect-to-target ratio 5:1; for killing effect of lymphocytes on tumor cells: FIG. 5, Rg3 1, 5, 10 μM
# Procedure: Cal-27 cells in good growth state were digested and centrifuged, appropriate amount of cell suspension was taken and placed in a new centrifuge tube, incubated with the target red label reagent for 20 min, washed and centrifuged with serum-free culture solution, then plated, and placed in an incubator for overnight cultivation to make them adhere to the wall. PBMC stimulated by PHA was added into the well plate in ratios of 1:1, 5:1, 10:1 and 20:1, and Incucyte real-time dynamic cell imaging system was used to observe the killing effect of lymphocytes on tumor cells under different target ratio conditions.
# Cal-27 cells in good growth statu were digested and centrifuged, incubated with red target labeling reagent for 20 min, and washed with serum-free culture solution. After the cells were adherence to the wall overnight, the PBMC stimulated by PHA was added to the well plate according to the effect-to-target ratio of 5:1 and co-cultured with Cal-27 cells. Ginsenoside Rh2 or ginsenoside Rg3 of medicament solution with different concentrations were prepared, and they and 5 μg/mL human anti-PD-1 antibody were added into the well plate for incubation, and were divided into control group, ginsenoside alone group, anti-PD-1 antibody alone group, ginsenoside and anti-PD-1 antibody combination group. The culture plates were placed into Incucyte real-time dynamic cell imaging analysis system for real-time monitoring.
# [3] = tested on: tumor-infiltrating lymphocytes; test: Tumor-infiltrating lymphocyte levels in mice tumor tissue (flow cytometry); format: in vivo; settings: for number/abundance of T cells infiltrating into tumors: FIGS. 7A and 7D
# Procedure: (§1) The mice were randomly divided into four groups: model control group, ginsenoside Rh2 group (15 mg/kg), anti-PD-1 antibody group (200 μg/mice), and ginsenoside Rh2 in combination with anti-PD-1 antibody group. The administration time and volume were as follows: ginsenoside Rh2 was administered intragastrically 5 days before vaccination; anti-PD-1 antibody was administered intraperitoneally on days 3, 6, 9, and 12 after vaccination.
# (§2) SCC-7 cells were resuscitated and expanded in large quantities. Trypsin was added to digest and the cells were collected. After counted, the cells were re-suspended in PBS solution and the cell concentration was adjusted, and the mice were inoculated with 5*10^6 cells/0.2 mL in the right armpit.
# After the experiment, the mice's eyeballs were removed to collect blood, and the tumor tissue was peeled off. The tumor tissue was divided into two parts, one part was quickly frozen in liquid nitrogen and then transferred to a −80° C. refrigerator for storage, and the other part was stored in PBS solution for flow cytometry detection.
# Mice tumor samples were cut into pieces with sterile scissors, ground gently with a syringe stopper, and filtered through a 40 μm filter to prepare a single cell suspension. The cell suspension was transferred to a new centrifuge tube, PBS solution was added, the supernatant was discarded after centrifugation, and the remaining was washed with PBS and centrifuged again. PBS was added to re-suspended, 100 μL of resuspending solution was placed into the flow tube, the corresponding flow cytometry antibody was added for incubating and staining for 20 minutes, and then on-machine detection was performed.
# SCC-7 cells = test: Tumor growth in head and neck squamous cell carcinoma-bearing mice; format: in vivo; settings: FIG. 6A; alone, versus model control; Rh2 15 mg/kg intragastric; anti-PD-1 antibody 200 μg/mice intraperitoneal
# Procedure: SPF grade C57 mice, 6 weeks old, female, were purchased from Beijing Charles River Laboratories Animal Company. […] OF MEDICINAL PLANT DEVELOPMENT. The experimental facilities comply with barrier environmental standards, with a temperature of 20° C. to 26° C., a relative humidity of 40% to 70%, and light and dark alternating for 12 hours each. Mice were raised in standard boxes, with 5 mice per cage. During the raising process, the animals were allowed to eat and move freely.
# as §1, §2
# Throughout the experiment, the tumor volume of the mice was measured twice weekly.
# After the experiment, the mice's eyeballs were removed to collect blood, and the tumor tissue was peeled off. […]
# [4] = Rh2 as metabolite relative to ginsenoside Rg3; cited from earlier work
molecule,measurement,setting,value
CC(C)=CCC[C@](C)(O[C@@H]1O[C@H](CO[C@@H]2O[C@H](CO)[C@@H](O)[C@H](O)[C@H]2O)[C@@H](O)[C@H](O)[C@H]1O)[C@H]1CC[C@]2(C)[C@@H]1[C@H](O)C[C@@H]1[C@@]3(C)CC[C@H](O[C@@H]4O[C@H](CO)[C@@H](O)[C@H](O)[C@H]4O[C@@H]4O[C@H](CO)[C@@H](O)[C@H](O)[C@H]4O)C(C)(C)[C@@H]3CC[C@]12C [ginsenoside Rb1],pIC50,Cal-27 cells [1],~4.00
same,inhibitory effect on Cal-27 cells,Cal-27 cells [1],concentration-dependent inhibitory effects
CC(C)=CCC[C@](C)(O)[C@H]1CC[C@]2(C)[C@@H]1[C@H](O)C[C@@H]1[C@@]3(C)CC[C@H](O)C(C)(C)[C@@H]3[C@@H](O[C@@H]3O[C@H](CO)[C@@H](O)[C@H](O)[C@H]3O)C[C@]12C [ginsenoside Rh1],pIC50,Cal-27 cells [1],~4.00
same,inhibitory effect on Cal-27 cells,Cal-27 cells [1],concentration-dependent inhibitory effects
pembrolizumab [anti-PD-1 antibody],number of Cal-27 cells / killing effect of lymphocytes on tumor cells,Cal-27 cells [2],can also significantly promote the killing effect of lymphocytes
same,killing effect of lymphocytes on tumor cells,Cal-27 cells [2],can significantly promote the killing effect of lymphocytes
same,number/abundance of T cells infiltrating into tumors,[3],neither ginsenoside Rh2 nor anti-PD-1 antibody had a significant effect
same,infiltration level of CD8+ T cells in tumors,"[3]; FIGS. 7B and 7E, P<0.05",increased significantly
same,tumor volume,SCC-7 cells,decreased slightly
CC(C)=CCC[C@](C)(O[C@@H]1O[C@H](CO[C@@H]2O[C@@H](CO)[C@H](O)[C@H]2O)[C@@H](O)[C@H](O)[C@H]1O)[C@H]1CC[C@]2(C)[C@@H]1[C@H](O)C[C@@H]1[C@@]3(C)CC[C@H](O[C@@H]4O[C@H](CO)[C@@H](O)[C@H](O)[C@H]4O[C@@H]4O[C@H](CO)[C@@H](O)[C@H](O)[C@H]4O)C(C)(C)[C@@H]3CC[C@]12C [ginsenoside Rc],inhibitory effect on Cal-27 cells,Cal-27 cells [1],concentration-dependent inhibitory effects
same,pIC50,"Cal-27 cells [1]; Homo sapiens, CAL-27",~4.00
CC(C)=CCC[C@](C)(O[C@@H]1O[C@H](CO[C@@H]2OC[C@@H](O)[C@H](O)[C@H]2O)[C@@H](O)[C@H](O)[C@H]1O)[C@H]1CC[C@]2(C)[C@@H]1[C@H](O)C[C@@H]1[C@@]3(C)CC[C@H](O[C@@H]4O[C@H](CO)[C@@H](O)[C@H](O)[C@H]4O[C@@H]4O[C@H](CO)[C@@H](O)[C@H](O)[C@H]4O)C(C)(C)[C@@H]3CC[C@]12C [ginsenoside Rb3],pIC50,Cal-27 cells [1],~4.00
same,inhibitory effect on Cal-27 cells,Cal-27 cells [1],concentration-dependent inhibitory effects
CC(C)=CCC[C@](C)(O)[C@H]1CC[C@]2(C)[C@@H]1[C@H](O)C[C@@H]1[C@@]3(C)CC[C@H](O[C@@H]4O[C@H](CO)[C@@H](O)[C@H](O)[C@H]4O)C(C)(C)[C@@H]3CC[C@]12C [ginsenoside Rh2],number of Cal-27 cells / killing effect of lymphocytes on tumor cells,Cal-27 cells [2],can reduce the number of Cal-27 cells
same,number/abundance of T cells infiltrating into tumors,[3],neither ginsenoside Rh2 nor anti-PD-1 antibody had a significant effect
same,proportion of B cell activation,"[3]; FIGS. 7C and 7F, P<0.05",significantly increase the proportion of B cell activation
same,inhibitory effect on Cal-27 cells,Cal-27 cells [1],most significant inhibitory effect
same,tumor volume,SCC-7 cells,significantly reduce the tumor size
same,content increased,[4],50 times
same,oral bioavailability increased,[4],5 times
CC(C)=CCC[C@](C)(O)[C@H]1CC[C@]2(C)[C@@H]1[C@H](O)C[C@@H]1[C@@]3(C)CC[C@H](O[C@@H]4O[C@H](CO)[C@@H](O)[C@H](O)[C@H]4O[C@@H]4O[C@H](CO)[C@@H](O)[C@H](O)[C@H]4O)C(C)(C)[C@@H]3CC[C@]12C [ginsenoside Rg3],killing effect of lymphocytes on tumor cells,Cal-27 cells [2],can promote the killing effect of lymphocytes
same,inhibitory effect on Cal-27 cells,Cal-27 cells [1],most significant inhibitory effect
CC(C)=CCC[C@](C)(O[C@@H]1O[C@H](CO)[C@@H](O)[C@H](O)[C@H]1O)[C@H]1CC[C@]2(C)[C@@H]1[C@H](O)C[C@@H]1[C@@]3(C)CC[C@H](O)C(C)(C)[C@@H]3CC[C@]12C [ginsenoside CK],inhibitory effect on Cal-27 cells,Cal-27 cells [1],most significant inhibitory effect
CC(C)=CCC[C@](C)(O[C@@H]1O[C@H](CO)[C@@H](O)[C@H](O)[C@H]1O)[C@H]1CC[C@]2(C)[C@@H]1[C@H](O)C[C@@H]1[C@@]3(C)CC[C@H](O)C(C)(C)[C@@H]3[C@@H](O[C@@H]3O[C@H](CO)[C@@H](O)[C@H](O)[C@H]3O)C[C@]12C [ginsenoside Rg1],pIC50,Cal-27 cells [1],~4.00
same,inhibitory effect on Cal-27 cells,Cal-27 cells [1],concentration-dependent inhibitory effects
CC(C)=CCC[C@](C)(O[C@@H]1O[C@H](CO)[C@@H](O)[C@H](O)[C@H]1O)[C@H]1CC[C@]2(C)[C@@H]1[C@H](O)C[C@@H]1[C@@]3(C)CC[C@H](O)C(C)(C)[C@@H]3[C@@H](O[C@@H]3O[C@H](CO)[C@@H](O)[C@H](O)[C@H]3O[C@@H]3O[C@@H](C)[C@H](O)[C@@H](O)[C@H]3O)C[C@]12C [ginsenoside Re],inhibitory effect on Cal-27 cells,Cal-27 cells [1],concentration-dependent inhibitory effects
same,pIC50,"Cal-27 cells [1]; Homo sapiens, CAL-27",~4.00
